In paper PMC6691788, “Design and synthesis of phthalazine-based compounds as potent anticancer agents with potential antiangiogenic activity via VEGFR-2 inhibition” (Journal of Enzyme Inhibition and Medicinal Chemistry, 2019):

Legend:
Test in all cases: NCI 60 cell panel SRB screen
CCRF-CEM = assay type: cell-based, human; settings: Homo sapiens, single dose 10 μM, read-out: percent cell growth promotion
K-562 = assay type: cell-based; settings: Homo sapiens, K562; K-562, single dose 10 μM; read-out: percent cell growth promotion
MOLT-4 = assay type: cell-based; settings: Homo sapiens; MOLT-4, single dose 10 μM; read-out: percent cell growth promotion
RPMI-8226 = assay type: cell-based; settings: Homo sapiens; RPMI-8226, single dose 10 μM; read-out: percent cell growth promotion
SR = assay type: cell-based; settings: Homo sapiens, single dose 10 μM, read-out: percent cell growth promotion
HOP-62 = assay type: cell-based; settings: Homo sapiens; HOP-62, single dose 10 μM; read-out: percent cell growth promotion
HOP-92 = assay type: cell-based; settings: Homo sapiens; HOP-92, single dose 10 μM; read-out: percent cell growth promotion
NCI-H226 = assay type: cell-based; settings: Homo sapiens; NCI-H226, single dose 10 μM; read-out: percent cell growth promotion
NCI-H322M = assay type: cell-based; settings: Homo sapiens, single dose 10 μM, read-out: percent cell growth promotion
HCC-2998 = assay type: cell-based; settings: Homo sapiens; HCC-2998, single dose 10 μM; read-out: percent cell growth promotion
HCT-116 = assay type: cell-based; settings: Homo sapiens; HCT-116, single dose 10 μM; read-out: percent cell growth promotion
HCT-15 = assay type: cell-based; settings: Homo sapiens; HCT-15, single dose 10 μM; read-out: percent cell growth promotion
KM12 = assay type: cell-based; settings: Homo sapiens; KM12, single dose 10 μM; read-out: percent cell growth promotion
SF-268 = assay type: cell-based; settings: Homo sapiens; SF-268, single dose 10 μM; read-out: percent cell growth promotion
SNB-19 = assay type: cell-based; settings: Homo sapiens; SNB-19, single dose 10 μM; read-out: percent cell growth promotion
SNB-75 = assay type: cell-based; settings: Homo sapiens; SNB-75, single dose 10 μM; read-out: percent cell growth promotion
U251 = assay type: cell-based; settings: Homo sapiens, U-251; U251, single dose 10 μM; read-out: percent cell growth promotion
LOX IMVI = assay type: cell-based; settings: Homo sapiens, read-out: percent cell growth promotion
UACC-257 = assay type: cell-based; settings: Homo sapiens, UACC-257, read-out: percent cell growth promotion
UACC-62 = assay type: cell-based; settings: Homo sapiens, UACC-62, read-out: percent cell growth promotion
OVCAR-5 = assay type: cell-based; settings: Homo sapiens; OVCAR-5, single dose 10 μM; read-out: percent cell growth promotion
SK-OV-3 = assay type: cell-based; settings: Homo sapiens; SK-OV-3, single dose 10 μM; read-out: percent cell growth promotion
ACHN = assay type: cell-based; settings: Homo sapiens, single dose 10 μM, read-out: percent cell growth promotion
CAKI-1 = assay type: cell-based, human; settings: Homo sapiens; CAKI-1, single dose 10 μM; read-out: percent cell growth promotion
SN12C = assay type: cell-based; settings: Homo sapiens, single dose 10 μM, read-out: percent cell growth promotion
TK-10 = assay type: cell-based, human; settings: Homo sapiens; TK-10, single dose 10 μM; read-out: percent cell growth promotion
DU-145 = assay type: cell-based; settings: Homo sapiens; DU-145, single dose 10 μM; read-out: percent cell growth promotion
MCF7 = assay type: cell-based; settings: Homo sapiens, MCF7, read-out: percent cell growth promotion
MDA-MB 231/ATCC = assay type: cell-based; settings: Homo sapiens, MDA-MB-231, read-out: percent cell growth promotion
HS 578T = assay type: cell-based; settings: Homo sapiens, Hs-578T, read-out: percent cell growth promotion
BT-549 = assay type: cell-based; settings: Homo sapiens, BT-549, read-out: percent cell growth promotion
T-47D = assay type: cell-based; settings: Homo sapiens, T47D, read-out: percent cell growth promotion

Row | SMILES | activity at 10 µM (CCRF-CEM) | activity at 10 µM (K-562) | activity at 10 µM (MOLT-4) | activity at 10 µM (RPMI-8226) | activity at 10 µM (SR) | activity at 10 µM (HOP-62) | activity at 10 µM (HOP-92) | activity at 10 µM (NCI-H226) | activity at 10 µM (NCI-H322M) | activity at 10 µM (HCC-2998) | activity at 10 µM (HCT-116) | activity at 10 µM (HCT-15) | activity at 10 µM (KM12) | activity at 10 µM (SF-268) | activity at 10 µM (SNB-19) | activity at 10 µM (SNB-75) | activity at 10 µM (U251) | activity at 10 µM (LOX IMVI) | activity at 10 µM (UACC-257) | activity at 10 µM (UACC-62) | further results
1 | Cc1nnc(Oc2ccc(NC(=O)Nc3ccc(Cl)cc3)cc2)c2ccccc12 [Compound 7e, 1–(4-Chlorophenyl)-3–(4-(4-methylphthalazin-1-yloxy)phenyl)urea] | 40.2% | 61.1% | 36.1% | 55.6% | 38.5% | 71.1% | 93.5% | 79.1% | 82.4% | 110% | 72.5% | 69.5% | 57.7% | 70.5% | 84.1% | 47.3% | 60% | 78.1% | 83.9% | 45.8% | activity at 10 µM (OVCAR-5): 119%; activity at 10 µM (SK-OV-3): 69.5%; activity at 10 µM (ACHN): 80.7%; activity at 10 µM (CAKI-1): 79.7%; activity at 10 µM (SN12C): 79.1%; activity at 10 µM (TK-10): 84.8%; activity at 10 µM (DU-145): 81.4%; activity at 10 µM (MCF7): 72.7%; activity at 10 µM (MDA-MB 231/ATCC): 52.9%; activity at 10 µM (HS 578T): 76.4%; activity at 10 µM (BT-549): 72%; activity at 10 µM (T-47D): 57.9%
2 | CCOC(=O)N1CCN(c2nncc3ccccc23)CC1 [Compound 8a, Ethyl 4-(phthalazin-1-yl)piperazine-1-carboxylate] | 96.9% | 110% | 98.6% | 101% | 102% | 107% | 104% | 100% | 113% | 117% | 99.1% | 111% | 104% | 104% | 103% | 104% | 99.3% | 98.7% | 95.8% | 103% | activity at 10 µM (OVCAR-5): 128%; activity at 10 µM (SK-OV-3): 105%; activity at 10 µM (ACHN): 115%; activity at 10 µM (CAKI-1): 96.1%; activity at 10 µM (SN12C): 110%; activity at 10 µM (TK-10): 110%; activity at 10 µM (DU-145): 104%; activity at 10 µM (MCF7): 103%; activity at 10 µM (MDA-MB 231/ATCC): 108%; activity at 10 µM (HS 578T): 113%; activity at 10 µM (BT-549): 112%; activity at 10 µM (T-47D): 100%
3 | c1ccc(N2CCN(c3nncc4ccccc34)CC2)nc1 [Compound 8d, 1–(4-(Pyridin-2-yl)piperazin-1-yl)phthalazine] | 102% | 106% | 106% | 107% | 103% | 110% | 102% | 98.1% | 114% | 117% | 103% | 108% | 104% | 103% | 113% | 105% | 96.9% | 97.5% | 99% | 99.6% | activity at 10 µM (OVCAR-5): 105%; activity at 10 µM (SK-OV-3): 104%; activity at 10 µM (ACHN): 115%; activity at 10 µM (CAKI-1): 109%; activity at 10 µM (SN12C): 102%; activity at 10 µM (TK-10): 105%; activity at 10 µM (DU-145): 99%; activity at 10 µM (MCF7): 105%; activity at 10 µM (MDA-MB 231/ATCC): 108%; activity at 10 µM (HS 578T): 109%; activity at 10 µM (BT-549): 104%; activity at 10 µM (T-47D): 101%
4 | CCOC(=O)N1CCN(c2nnc(C)c3ccccc23)CC1 [Compound 8f, Ethyl 4–(4-methylphthalazin-1-yl)piperazine-1-carboxylate] | 103% | 100% | 109% | 96.9% | 101% | 100% | 112% | 103% | 101% | 99.8% | 103% | 98.6% | 107% | 101% | 107% | 101% | 96% | 106% | 92.4% | 109% | activity at 10 µM (OVCAR-5): 95%; activity at 10 µM (SK-OV-3): 101%; activity at 10 µM (ACHN): 107%; activity at 10 µM (CAKI-1): 90.3%; activity at 10 µM (SN12C): 101%; activity at 10 µM (TK-10): 90.6%; activity at 10 µM (DU-145): 100%; activity at 10 µM (MCF7): 92.1%; activity at 10 µM (MDA-MB 231/ATCC): 114%; activity at 10 µM (HS 578T): 106%; activity at 10 µM (BT-549): 66.7%; activity at 10 µM (T-47D): 87.2%
